Test results from publication PMC10689823, “Discovery of a Drug-like, Natural Product-Inspired DCAF11 Ligand Chemotype” (Nature Communications, 2023).
Where “and” joins values, the source holds several entries; their conditions need not be identical. Equal entries are not always repeated.

Key:
Format in all cases: binding
DCAF11 [1] = biological target: T1, DCAF11 (Homo sapiens, UniProt Q8TEB1); assay: Affinity-based enrichment (biotin-streptavidin pulldown) in Hep G2 cells overexpressing HA-DCAF11; parameters: host or cells: Hep G2; details: Hep G2 cells overexpressing HA-DCAF11; 10 μM probe, 2 h
T1 sequence (Q8TEB1 whole entry): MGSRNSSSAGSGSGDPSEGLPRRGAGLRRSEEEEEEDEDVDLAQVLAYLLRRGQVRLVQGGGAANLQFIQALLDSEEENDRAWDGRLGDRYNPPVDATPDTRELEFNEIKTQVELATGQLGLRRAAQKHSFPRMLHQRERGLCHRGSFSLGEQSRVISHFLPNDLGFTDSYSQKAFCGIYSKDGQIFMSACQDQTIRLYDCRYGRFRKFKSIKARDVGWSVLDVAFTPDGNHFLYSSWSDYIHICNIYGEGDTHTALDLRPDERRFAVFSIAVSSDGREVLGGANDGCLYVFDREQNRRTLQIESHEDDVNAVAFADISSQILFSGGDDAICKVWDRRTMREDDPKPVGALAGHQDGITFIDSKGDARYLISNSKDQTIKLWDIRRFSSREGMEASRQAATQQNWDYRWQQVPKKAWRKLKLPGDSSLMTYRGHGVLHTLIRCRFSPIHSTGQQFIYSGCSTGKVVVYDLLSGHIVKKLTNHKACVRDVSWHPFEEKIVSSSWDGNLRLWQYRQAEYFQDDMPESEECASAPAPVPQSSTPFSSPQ
Procedure: Hep G2 cells (1 × 10^6 cells/well) were seeded in 6-well plates and incubated for 24 h. On the next day, the cells were transfected with 1 µg pCMV3-N-HA-DCAF11 plasmid (Sino Biological, HG16257-NY) or 1 µg empty vector (pcDNA3.1(+), Thermo Fisher, V79020) and 2.5 µL FuGENE® HD transfection reagent (Promega, E2311) per well. The cells were incubated for 48 h prior to treatment with 100 μM compound 2 for 1 h. […] The cells were washed with ice-cold PBS, then lysed in lysis buffer (150 mM sodium chloride, 1% NP-40, 50 mM TRIS-HCl, pH 8.0 with complete protease inhibitor cocktail (Roche, 11836170001)) for 30 min on ice. After centrifugation at 16,000 x g, the supernatant was transferred into a new tube and the protein concentration was determined using the DC protein assay (BIO-RAD, 5000116).
The supernatant was discarded and 1 mg of lysate in 500 µL lysis buffer was added to the beads and incubated for 1 h at room temperature with overhead rotation. The beads were washed twice with 500 µL washing buffer (50 mM PIPES (pH 7.4), 50 mM NaCl, 75 mM MgCl2, 5 mM EGTA, 0.1% NP-40, 0.1% Triton X-100, 0.1% Tween20) and twice with PBS for 10 min each at room temperature with overhead rotation. Enriched proteins were eluted by boiling of the beads at 95 °C for 5 min in 20 µL of a supersaturated (25 mM) biotin solution and visualized by Western Blotting as described above.

DCAF11 [2] = biological target: T1, DCAF11; assay: In-gel fluorescence labelling of purified DCAF11; details: 40 min; in-gel fluorescence
Procedure: Purified DCAF11 protein (1 μg, Origene, TP760719) was diluted in PBS buffer that is mixed with compound 2 or BODIPY derivative 18 at the indicated concentration at room temperature. Samples were diluted with 5 × SDS sample loading buffer and heated at 95 °C for 5 min. Proteins were separated using SDS-PAGE and were visualized using the ChemiDoc MP Imaging System (BIO-RAD) at 488 nm and the results were analyzed by Image Lab (BIORAD).

LC3B [3] = biological target: T2, LC3B (Homo sapiens, UniProt Q9GZQ8); assay: Fluorescence polarization with LC3B protein; parameters: His (N); made in house; host or cells: E. coli BL21DE3 RIL; details: for Fluorescence Polarization (mP): probe 18 at 100 µM
Procedure: The LC3B open reading frame was cloned into pOPINE-NHis by the Dortmund protein Facility (DPF). pOPINE-NHis-LC3B was transformed into BL21DE3 RIL K+. Cells were cultured in TB medium supplemented with ampicillin and chloramphenicol (Amp/Cam), 1% glucose and 2 mM MgSO4. A 10 L culture was incubated in TB/Amp with 0.01 % lactose monohydrate, 2 mM MgSO4 for 4 h at 37 °C followed by overnight incubation at 20 °C. Cells were lysed using sonication in a buffer containing 50 mM HEPES (pH 7.5), 300 mM NaCl, 10 mM imidazole, 1 mM 2-mercaptoethanol, 1 mM PMSF and DNase. Upon centrifugation, the supernatant was applied onto Ni NTA column. The column was washed using 50 mM HEPES (pH 7.5), 300 mM NaCl, 30 mM imidazole, 1 mM 2-mercaptoethanol. The protein was eluted in 50 mM HEPES pH 7.5, 300 mM NaCl, 300 mM imidazole, 1 mM 2-mercaptoethanol prior to size exclusion chromatography using 26/60 G75 column and 25 mM HEPES pH 7.5, 150 mM NaCl and1 mM DTE.
The assay was performed in black, 384 well plates with a total volume of 20 µl per well using a buffer solution comprising 50 mM Tris, 300 mM NaCl and 1 mM 2-mercaptoethanol, pH 7.5. The BODIPY labelled compound 18 was tested at a final concentration of 100 µM, and the LC3B protein was titrated in two-fold dilution series. The plates were incubated at 20°C for 30 min, and fluorescence polarization was measured using a Tecan Spark plate reader at ex/em 502 / 511 nm.

LC3B [4] = biological target: T2, LC3B; assay: Thermal shift assay with LC3B; details: 15 µM LC3B; 60 µM compound; Glo-Melt dye
Procedure: For thermal shift analysis, 15 µM of human LC3B was dispensed into 384-well plates (Hard-Shell 384-well 480 PCR plates, BioRAD #HSR4805) in buffer (50 mM Tris/HCl pH 7.4, 100 mM NaCl, 1 mM GSH and 0.02% CHAPS) with a Certus Flex liquid dispenser (Gyger). 60 µM compounds in DMSO (n4 or DMSO (0.6%) as control were added with an Echo 520 acoustic liquid handler (Labcyte). Glo-Melt dye was added (final concentration: 1/100), plates sealed with Lightcycler 480 Sealing Foils (Roche, #04 729 757 001) and mixed by short centrifugation (1 min, 60 g and room temeprature). A Lightcycler 480 II (Roche) was used for thermal shift curves with a temperature gradient from 20 to 95 °C according to the manufacturer´s protocol. Protein melting curves were analyzed, and the difference in meting temperature (ΔTm) was calculated with LightCycler Thermal Shift Analysis software (ROCHE) and visualized by Graphpad Prism (Version 9.5.1).

O=C(CCCCC1SC[C@@H]2NC(=O)N[C@H]12)NCCOc1c(Br)cc(/C=C2\C(=O)Nc3ccc(Br)cc32)cc1Br (stereo partly shown) [Compound 14]
enrichment of DCAF11 by pulldown (DCAF11 [1]): enriched DCAF11 protein

Cc1cc(C)n2c1C=C1C=CC(CCC(=O)NCCOCCOCCOCCOc3c(Br)cc(C=C4C(=O)Nc5ccc(Br)cc54)cc3Br)=[N+]1[B-]2(F)F [Compound 18]
binding (fluorescence labelling) to purified DCAF11 (DCAF11 [2]): binds to purified DCAF11 in a concentration-dependent manner | binding to LC3B in fluorescence polarization (LC3B [3]; 18 at 100 µM, LC3B titrated): failed to bind | Fluorescence Polarization (mP) (LC3B [3]; LC3B protein concentration 0.00610352 µM): 132 mP and 130 mP and 100 mP and 97 mP | Fluorescence Polarization (mP) (LC3B [3]; LC3B protein concentration 0.012207 µM): 127 mP and 128 mP and 102 mP and 96 mP | Fluorescence Polarization (mP) (LC3B [3]; LC3B protein concentration 0.0244141 µM): 129 mP and 121 mP and 108 mP and 110 mP | Fluorescence Polarization (mP) (LC3B [3]; LC3B protein concentration 0.0488281 µM): 132 mP and 133 mP and 107 mP and 105 mP | Fluorescence Polarization (mP) (LC3B [3]; LC3B protein concentration 0.0976562 µM): 127 mP and 130 mP and 115 mP and 111 mP | Fluorescence Polarization (mP) (LC3B [3]; LC3B protein concentration 0.195312 µM): 131 mP and 136 mP and 106 mP and 103 mP | Fluorescence Polarization (mP) (LC3B [3]; LC3B protein concentration 0.390625 µM): 133 mP and 127 mP and 116 mP and 109 mP | Fluorescence Polarization (mP) (LC3B [3]; LC3B protein concentration 0.78125 µM): 135 mP and 112 mP and 108 mP | Fluorescence Polarization (mP) (LC3B [3]; LC3B protein concentration 1.5625 µM): 138 mP and 134 mP and 112 mP and 113 mP | Fluorescence Polarization (mP) (LC3B [3]; LC3B protein concentration 3.125 µM): 132 mP and 138 mP and 112 mP and 108 mP | Fluorescence Polarization (mP) (LC3B [3]; LC3B protein concentration 6.25 µM): 132 mP and 131 mP and 113 mP and 111 mP | Fluorescence Polarization (mP) (LC3B [3]; LC3B protein concentration 12.5 µM): 108 mP and 101 mP and 138 mP and 135 mP | Fluorescence Polarization (mP) (LC3B [3]; LC3B protein concentration 25 µM): 110 mP and 132 mP and 130 mP | Fluorescence Polarization (mP) (LC3B [3]; LC3B protein concentration 50 µM): 107 mP and 101 mP and 132 mP and 133 mP | Fluorescence Polarization (mP) (LC3B [3]; LC3B protein concentration 100 µM): 102 mP and 138 mP and 134 mP

DC-LC3in-D5 [reference compound]
change of melting temperature of LC3B (ΔTm) (LC3B [4]): 13 °C
